Experimental data: patent publication US11534504B2, “Compositions and methods for stabilizing coelenterazine and analogs and derivatives thereof” (Promega Corporation, priority 2018, dated 2022)

Experiments:
[1] = Analytical HPLC of Pluronic F-127 formulated substrates reconstituted in water (Examples 34-36); type: physicochemical
Protocol: 2.5 mgs of Pluronic® F-127 (Sigma Aldrich) were massed out into […] snap-top Eppendorf tubes. The polymer was heated to 70° C. in a water bath until melted, becoming a clear solution. […] 5 μL of this stock was added to the melted polymer and pipetted to mix. […] Condition 2—After addition of substrate, the substrate/polymer solution was further diluted with 45 μL of water, frozen, and lyophilized overnight.
Samples from both conditions 1 and 2 were reconstituted in water, diluted to 100 μM, and analyzed for chemical integrity via analytical HPLC (FIG. 54).
This formulation was also prepared for the coelenterazine analog, furimazine. 2.5 mgs of Pluronic® F-127(Sigma Aldrich) were massed out into 1.5 mL, snap-top Eppendorf tubes. The polymer was heated to 70° C. in a water bath until melted. A 10 mM stock solution of furimazine was prepared in EtOH. 5 μL of this stock was then added to the melted polymer and pipetted to mix. […] Condition 2—After addition of substrate, the substrate/polymer solution was further diluted with 45 μL of water, frozen, and then lyophilized overnight.
25 mgs of Pluronic® F-127 were massed out into a 1.5 mL, snap-top Eppendorf tube. The polymer was heated to 70° C. in a water bath until melted. […] An additional 50 μL of EtOH was used to wash and aid transfer of the substrate into the polymer solution. The solvent was removed under reduced pressure without heat.
After lyophilization, each sample was reconstituted with either 500 μL, 400 μL, 250 μL, or 100 μL water, respectively.

[2] = Absorbance of reconstituted furimazine compositions (Example 2); type: physicochemical
Protocol: Bulk solid furimazine was diluted in ethanol to a final concentration of 10 mM (solution 1). […] After mixing, vials containing solutions 3a-e were placed in dry ice to freeze for 1 hour. These frozen stocks where then lyophilized overnight for form dry pullulan matrices containing furimazine. […] Absorbance spectra of the formulated dry furimazine (50 nmols) with increasing amounts of pullulan after reconstitution in the PBS buffer are shown in FIG. 4A. Formulated furimazine with pullulan led to an increase in furimazine absorbance in aqueous solution. Concentration of furimazine was determined by Beer's law using the extinction coefficient of furimazine in methanol (21000 M^−1cm^−1) with absorbance measured at 254 nm. […] Absorbance of the formulated furimazine (95 μg) with increasing amounts of pullulan after reconstitution in the PBS buffer are shown in FIG. 4B. The solid furimazine formulated with increasing concentrations of pullulan matrix led to an increased in absorbance, and thus furimazine concentration in PBS buffer, compared to the conditions that contained only furimazine without pullulan.

[3] = molecular target: T1, cell culture expressing NanoLuc® enzyme (Oplophorus gracilirostris, UniProt Q9GV45, A31E/A60N/A81I/F95D/I117V/K70R/L54V/L99Q/M102K/N193R/P142E/Q151K/Q38R/Q45L/V71I/Y165I); experiment: Luminescence intensity of Nano-Glo substrate formulations with cell culture expressing NanoLuc (Examples 30-33); type: cell-based; details: Example 32; 100 mM HP-β-CD
T1 construct: expressed in transfected cells
Protocol: One volume of Nano-Glo® Luciferase Assay Substrate (Promega Cat. #N113) was combined with 50 volumes of Nano-Glo® Luciferase Assay Buffer (Promega Cat. #N112) containing sodium ascorbate at concentrations ranging from 0 to 300 mM. The solutions were incubated at 37° C. prior to assay at several time points. Nano-Glo® Luciferase Assay Substrate used according to manufacturer's instructions (stored at −20° C. during the course of the experiment and reconstituted for each time point) was used as a positive control. A cell culture expressing NanoLuc® enzyme was used as a sample for each time point. One volume of reconstituted Nano-Glo® Luciferase Assay Buffer was mixed with one volume of sample. After 3 minutes, the luminescence intensity was measured with a Bio-Tek Synergy® H1 96-well plate reader. For each sample, the luminescence intensity was background subtracted and normalized to the −20° C. control signal.
A 4× furimazine solution was prepared by diluting the stock 1:25 in a buffer containing 200 mM MES pH 6.0, 200 mM hydroxypropyl-β-cyclodextrin (HP-β-CD), and 600 mM sodium ascorbate. The solution was lyophilized for 48 hours using a Virtis Advantage Pro® Lyophilizer. […] After 3 min, the luminescence intensity was measured with a Bio-Tek Synergy H1 96-well plate reader. […] For each sample, the luminescence intensity was background subtracted and normalized to the −20° C. control signal. […]

T1 sequence (Q9GV45 28-196 with tags or gaps with the stated changes limits assumed): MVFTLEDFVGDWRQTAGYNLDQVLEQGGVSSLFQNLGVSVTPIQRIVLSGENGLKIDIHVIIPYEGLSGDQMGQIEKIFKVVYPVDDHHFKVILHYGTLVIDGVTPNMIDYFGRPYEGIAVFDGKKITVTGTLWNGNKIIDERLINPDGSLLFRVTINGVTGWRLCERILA

## O=c1c(Cc2ccco2)nc2c(Cc3ccccc3)[nH]c(-c3cccc(O)c3)cn1-2 [JRW-0238, 8-benzyl-2-(furan-2-ylmethyl)-6-(3-hydroxyphenyl)imidazo[1,2-a]pyrazin-3(7H)-one]
[1]; Example 34
  Area Percent, peak at retention time 6.969-6.985 min: 1.571%

## O=c1c(Cc2ccco2)nc2c(Cc3ccccc3)[nH]c(-c3ccccc3)cn1-2 [furimazine, 8-benzyl-2-(furan-2-ylmethyl)-6-phenylimidazo[1,2-a]pyrazin-3(7H)-one]
[1]; Example 35
  Area Percent, peak at retention time 6.104-6.109 min: 0.705%
  Area Percent, peak at retention time 6.541-6.548 min: 1.407%
  Area Percent, peak at retention time 7.949-7.957 min: 1.030%
[1]; Example 35, furimazine, 100 μM
  Area Percent, peak at retention time 5.028-5.038 min (main peak): 96.858%
[2]; 19.08 μg furimazine in 0.5 mL PBS pH 6.8, 30 minutes at room temperature
  absorbance at 254 nm: 0.0571
[2]; Beer's law from absorbance at 254 nm, 19.08 μg in 0.5 mL PBS pH 6.8
  calculated concentration of furimazine in solution: 0.0082 mM

## hydroxypropyl-β-cyclodextrin [HP-β-CD]
[3]
  signal enhancement compared to Nano-Glo buffer alone: 15 to 20%
